Experimental data: ChEMBL document CHEMBL1146320, “Investigating biological activity spectrum for novel quinoline analogues” (Bioorg Med Chem, 2007)
Active and inactive are the calls of the source. No cut-off for these calls is given here.

What was measured:
[1] = (§1) Inhibition of photosynthesis in spinach chloroplast; format: functional, Spinacia oleracea
[2] = Lipophilicity, log K of the compound; format: physicochemical; settings: octanol/water
[3] = tested on: SK-N-MC; experiment: Antiproliferative activity against human SK-N-MC cells by MTT assay; format: functional, cell-based
[4] = tested on: Chlorella vulgaris; experiment: Inhibition of Chlorella vulgaris Beij assessed as reduction of chlorophyll content; format: functional, organism-based
[5] = tested on: Spinacia oleracea; experiment: as §1; format: functional

SMILES	IC50 [1]	log K [2]	IC50 [3]	IC50 [4]	Activity [5]	Activity [4]
Cc1ccc2c(N)cc(N)c(O)c2n1	142 µM	0.2707	–	–	–	–
Oc1ccccc1/N=C/c1ccc2cccc(O)c2n1	–	0.4308	> 6.25 µM	11 µM	–	–
O=C(O)c1cccc2nc(/C=C/c3ccc(Cl)cc3)ccc12	487 µM	1.3976	> 6.25 µM	96 µM	–	–
O=C(O)c1ccc2nc(/C=C/c3ccccc3Cl)ccc2c1	215 µM	1.4787	> 6.25 µM	115 µM	–	–
Oc1cccc2ccc(/C=C/c3ccc(Cl)cc3)nc12	448 µM	1.5558	0.77 µM	–	–	–
CN(C)C(=O)Nc1ccc(Cl)c(Cl)c1 [DCMU]	1.9 µM	–	–	–	–	–
Oc1cccc2ccc(/C=C/c3cccc(Cl)c3)nc12	146 µM	1.5395	> 6.25 µM	33 µM	–	–
NC(=S)N/N=C/c1ncccc1N [TRIAPINE]	–	–	0.31 µM	–	–	–
Cc1ccc2c([N+](=O)[O-])cc([N+](=O)[O-])c(O)c2n1	26 µM	0.7292	> 6.25 µM	95 µM	–	–
Oc1cccc2ccc(/C=C/c3ccc(Br)cc3)nc12	135 µM	1.5802	> 6.25 µM	–	–	–
Nc1cc(N)c2cccnc2c1O	185 µM	0.0522	> 6.25 µM	114 µM	–	–
O=C(O)c1ccc(C(=O)O)c2nc(/C=C/c3cccc(Br)c3)ccc12	–	1.2171	–	–	–	–
Cc1nc2ccccc2c(=O)[nH]1	–	0.1515	> 6.25 µM	–	inactive	inactive
O=[N+]([O-])c1cc([N+](=O)[O-])c2cccnc2c1O	82 µM	0.7154	> 6.25 µM	–	–	–
O=C(O)c1ccc2ccc(/C=C/c3cccc(Cl)c3)nc2c1	–	1.2858	> 6.25 µM	–	–	–
Oc1ccc(/N=C/c2ccc3cccc(O)c3n2)cc1	–	1.0911	–	17 µM	–	–
Cc1ccc2c(C(=O)O)cccc2n1	146 µM	0.3629	> 6.25 µM	–	–	–
COc1ccccc1/C=C/c1ccc2cccc(C(=O)O)c2n1	–	1.1922	–	–	–	–
Oc1cccc(/N=C/c2ccc3cccc(O)c3n2)c1	–	0.886	–	168 µM	–	–
